From paper PMC6327999, “Hydroxyl-substituted double Schiff-base condensed 4-piperidone/cyclohexanones as potential anticancer agents with biological evaluation” (Journal of Enzyme Inhibition and Medicinal Chemistry, 2019)

Assays:
[1] = system: human lung carcinoma cells (A549); assay: Cytotoxicity, MTT assay, A549; type: cell-based
Source text: (§1) Compounds 2a–d, 3a–e, 4a–e, 5a–d, and 6a–c were screened against human neoplastic cell lines such as human lung carcinoma cells (A549), human gastric adenocarcinoma cells (SGC7901), human cervical carcinoma cells (HeLa), human liver hepatocellular carcinoma cell line (Hepg2), human chronic myelogenous leukemia cell line (K562), human acute mononuclear granulocyte leukemia (THP-1), human normal heptical cell line (LO2) (Table 1) using modified MTT assay (3-(4,5-dimethyl-2-thiazolyl)-2,5-diphenyl-2-H-tetrazolium bromide, MTT, Dojindo Laboratories, Tokyo, Japan). All cell lines were maintained at 37 °C in a humidified 5% CO2 and 95% air atmosphere. The HePG2 cell lines were cultured in DMEM containing 10% fetal bovine serum. Other cell lines were grown in medium 1640 and supplemented with 10% fetal bovine serum. […] Controls were prepared with 0.1% DMSO (v/v) only. The cells were seeded in a 96-well plate in 200 µL medium per well at a density of 1 × 10^4 cells/well for 24 hours. The cells were treated with serial concentrations of compound and incubated for 24 hours. Cells with only culture media were used as control. After the media was removed, 20 µL of MTT (5 mg/mL) was added then the plates were incubated for 4 hours at 37 °C in cell culture incubator. The MTT containing media were removed and then 150 µL of DMSO was added to dissolve the dark-blue formazan crystals. The optical density (OD) was measured by a multi-well plate reader (TECAN, Männedorf, Switzerland) at 570 nm. The results are expressed as a decrease in the cell viability (%) in comparison to untreated controls. The concentration of each compound was examined in triplicate, and the IC50 values are expressed in Table 1. The concentrations of the compounds were 50, 20, 10, 5, 2.5, 1, 0.5, 0.1, 0.05 and 0.01 µg/mL. Doxorubicin (DOX) and Curcumin were used as positive controls. […] The concentrations of curcumin used were 100, 50, 25, 12.5, 6.25, 3.125, 1, 0.5 and 0.1 µg/mL.

[2] = system: human gastric adenocarcinoma cells (SGC7901); assay: Cytotoxicity, MTT assay, SGC7901; type: cell-based
Source text: as §1

[3] = system: human cervical carcinoma cells (HeLa); assay: Cytotoxicity, MTT assay, HeLa; type: cell-based
Source text: as §1

[4] = system: human acute mononuclear granulocyte leukemia (THP-1); assay: Cytotoxicity, MTT assay, THP-1; type: cell-based
Source text: as §1

[5] = system: HepG2 xenografts; assay: In vivo antitumor efficacy, HepG2-bearing nude mice; parameters: species or system Balb/c nude mice
Description: (§2) The antitumor effect was investigated on the seven-week-old female Balb/c nude mice (n = 30) weighing 19–21 grams (Shanghai Laboratory Animal Center). Briefly, 0.2 mL HepG2 cells (1 × 10^7/mL) were inoculated subcutaneously into the alar left of each mouse. On the third day after the inoculation, the HepG2-bearing mice were randomly divided into five groups (n = 6/group) and administrated the according drug or solvent. […] The control group was administrated of saline as negative control. The body weight and tumor volumes calculation were recorded from the day of treatment, and the tumor volumes were calculated using the following equation: tumor volume = length × (width)^2 × π/6. Animal experiments were reviewed and approved by the Binzhou Medical University Experimental Animal Committee.

[6] = Body weight of HepG2-bearing mice; type: in vivo, Balb/c nude mice; details: measured every 2 days during treatment
Description: as §2

[7] = quotient of the IC50 values towards nonmalignant LO2 cells

O=C1/C(=C/c2cc(/N=C/c3ccc(O)c(O)c3O)ccc2F)CNC/C1=C\c1cc(/N=C/c2ccc(O)c(O)c2O)ccc1F [5c]
IC50 ([1]; Homo sapiens, A549, MTT, 24 hours): 1400 ± 200 nM | A549 SI [1, 7]: 10.7 | IC50 ([2]; Homo sapiens, SGC-7901, MTT, 24 hours): 1400 ± 100 nM | SGC7901 SI [2, 7]: 11.1 | IC50 ([3]; Homo sapiens, HeLa, MTT, 24 hours): 1500 ± 300 nM | HeLa SI [3, 7]: 9.8 | IC50 ([4]; Homo sapiens, THP-1, MTT, 24 hours): 900 ± 200 nM | THP-1 SI [4, 7]: 17.0 | tumor growth inhibition ([5]; 1.0 mg/kg/d i.p. for 20 days): light inhibitory activity | tumor growth inhibition ([5]; 10 mg/kg/d i.p. for 20 days): significantly inhibited the tumor growth | body weight change [6]: no apparent change in body weight
